Measurements from PubChem BioAssay (NCI).
Several values for one entry are separate records, joined by “and”; a condition that tells them apart may be missing. Equal values may be shown once.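 Five concentrations, 48 hours, 96-well plates. At the GI50, growth is halved. Definition used: TGI = concentration required for complete inhibition of growth.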

Tested on: MDA-MB-468 breast
Experiment: inhibition of tumour cell growth, NCI panel, 48 h

| Compound | GI50 | TGI |
| --- | --- | --- |
| NC(=O)c1cccc(N2Cc3ccccc3OC3=C2C(=O)c2c(O)ccc(O)c2C3=O)c1 | 0.195 µM | 0.425 µM |
| CC(=O)c1cc2c(c(O)c1C)C(=O)C(=O)c1c(O)cccc1-2 | 0.198 µM | 0.495 µM |
| Cn1cc(C2=C(c3cn(CCCO)c4ccccc34)C(=O)NC2=O)c2ccccc21 | 2.25 µM | 18.4 µM |
| CC(Nc1c(C#N)cnc2ccc(-c3cnc(N)nc3)cc12)c1ccccc1 (stereo unspecified) | 0.396 µM | 3.34 µM |
| O[N+]1=CC=CCC1=S.On1ccccc1=S.[Zn] | 0.584 µM | 1.6 µM |
| Cc1ccc(-c2cc(C(=O)N3N=C(c4ccc(N)cc4)CC3c3ccc(Cl)cc3)c3ccccc3n2)cc1 (stereo unspecified) | 4.91 µM | > 100 µM |
| COc1ccc(/C=C/C(=O)c2cccc(B(O)O)c2)cc1O | 2.86 µM | 21 µM |
| Cc1c(C(N)=O)sc2c1c(=O)n(Cc1ccccc1)c1nnc(SCC(=O)Nc3ccc(Cl)cc3)n21 | 2.64 µM | 6.88 µM |
| CN([O-])c1nc(N(C)[O-])nc(N2CCOCC2)n1.CN([O-])c1nc(N(C)[OH2+])nc(N2CCOCC2)n1.[Fe+3] | 45.4 µM | > 100 µM |
| Cc1cc(Nc2cccc(F)c2)nc(NCc2ccccc2)n1 | 2.17 µM | 7.75 µM |
| CO[C@H](C(=O)[C@@H](O)[C@@H](C)O)[C@@H]1Cc2cc3cc(O[C@H]4C[C@@H](O[C@H]5C[C@@H](O)[C@H](O)C(C)O5)[C@H](O)C(C)(O)O4)cc(O)c3c(O)c2C(=O)[C@H]1O[C@H]1C[C@@H](O[C@H]2C[C@@H](O[C@H]3C[C@@H](OC)[C@H](O)C(C)O3)[C@@H](O)C(C)O2)[C@H](O)C(C)O1 (stereo partly specified) | 2.93 µM | > 16.8 µM |
| COc1ccc(/C=N/C2=C(C#N)C(c3ccccc3)c3c(ccc4ccccc34)O2)cc1 (stereo unspecified) | 1.08 µM | 20.5 µM |
| FC(F)(F)c1cccc(Nc2nc3ccccc3nc2Nc2cccc(C(F)(F)F)c2)c1 | 1.53 µM | 3.56 µM |
| C[C@@H](O)[C@H]1C(=O)N2C(C(=O)O)=C(SCCN=CN)C[C@H]12 | 1.1 µM | 2.73 µM |
| COC(=O)[C@@H](C[C@H](Cc1ccccc1)NC(=O)c1csc([C@@H](C[C@H](C(C)C)N(C)C(=O)[C@@H](NC(=O)[C@H]2CCCCN2C)C(C)C)OC(C)=O)n1)NC(=O)OCc1ccccc1 | < 0.000833 µM | < 0.000833 µM |
| O=C(N/N=C\c1c(O)ccc2ccccc12)C1CC1 | 3.16 µM | 8.68 µM |
| CC(=O)OC[C@]1(C)C=C2C(=O)[C@](C)(O)C3(CC3)C(C)=C2[C@H]1OC(=O)N(C)CCN(C)C(=O)OC(C)(C)C | 0.519 µM | 1.2 µM |
| Cn1cc(C2=C(c3cn(CCSC(=N)N)c4ccccc34)C(=O)NC2=O)c2ccccc21 | 3.19 µM | 7.12 µM |
| CCCCCCNC(=O)Nc1ccc2cc3ccc(NC(=O)NCCCCCC)cc3nc2c1 | 1.62 µM | 3.73 µM |
| COc1ccc2nc3cc(Cl)ccc3c(NCCCCCN3CCCCC3)c2c1 | 1.21 µM | 2.58 µM |

| Compound | GI50 | TGI |
| --- | --- | --- |
| Cc1c2cnccc2c(C)c2c1c1cc(CO)ccc1n2C | 0.151 µM | 0.42 µM |
| O=C(Nc1cccc(-c2cccc(F)c2)c1)C1CCN(Cc2cccc3cccnc23)CC1 | 1.76 µM | 3.46 µM |
| COC(=O)C(N)CSC(c1ccccc1)(c1ccccc1)c1ccccc1 (stereo unspecified) | 0.336 µM | 2.74 µM |
| O=C(O)CCCn1c(SCc2c(Cl)cccc2Cl)nc2ccsc2c1=O | 0.24 µM | > 100 µM |
| COc1cccc(/C=N/Nc2ncnc3c2cnn3-c2cccc(OC)c2)c1 | > 25 µM | > 25 µM |
| CCN(CC)c1ccc(/C=C2\SC(=O)C(Nc3nnc(-c4cccnc4SCc4ccccc4)o3)C2=O)cc1 (stereo unspecified) | 3.23 µM | 11.8 µM |
| COc1cccc2c1-c1ccccc1C2=O | 0.346 µM | 21.3 µM |
| COc1ccc(S(=O)(=O)Nc2cc(/C=C\c3cc(OC)c(OC)c(OC)c3)cc(OC)c2OC)cc1 | 0.042 µM | > 100 µM |
| CN(C)c1ccc2nc3ccc(N)cc3[n+](-c3ccccc3)c2c1 | 0.179 µM and 1.74 µM | 1.54 µM and 7.28 µM |
| C1CN1c1nc(N2CC2)nc(N2CC2)n1 | 4.83 µM | 19.2 µM |
| Clc1ccc(/C=C2\CCCC3C2=Nc2ccccc2NC3c2ccc(Cl)cc2)cc1 (stereo unspecified) | 1.89 µM | 4.6 µM |
| CC(C)[C@]12O[C@H]1[C@@H]1O[C@]13[C@]1(O[C@H]1C[C@H]1C4=C(CC[C@@]13C)C(=O)OC4)[C@@H]2OC(=O)CN(C)C | 0.0183 µM | 0.0524 µM |
| O=C1c2ccccc2C(=O)c2c(N=Nc3[nH]c(=S)[nH]c3O)cccc21 | 0.44 µM | 9.34 µM |
| O=C(C[Si](CC(=O)c1cccc(C(F)(F)F)c1)CC(=O)c1cccc(C(F)(F)F)c1)c1cccc(C(F)(F)F)c1 | 2.24 µM | 6.71 µM |
| Cc1nc2cc(-n3c(-c4ccc(F)cc4)nc4ccccc4c3=O)ccc2n1Cc1ccccc1 | 2 µM | 4.95 µM |
| CCCCCCCCCCCC[n+]1c(C)cc(N)c2ccccc21 | 0.206 µM | 0.76 µM |
| Nc1nc(N)c2cc(CNc3ccc(C(=O)NC(CC(=O)O)C(=O)O)cc3)ccc2n1 (stereo unspecified) | 0.941 µM |  |
| CN1CCN(c2ccc3nc(-c4c5cccccc-5[nH]c4=O)[nH]c3c2)CC1 | 15.4 µM | 34.2 µM |
| O=C1OCC2=C1C(c1cccc(Cl)c1)c1cc3c(cc1N2CCO)OCO3 (stereo unspecified) | 0.246 µM |  |
